# Source: ChEMBL document CHEMBL5584354, “Impact of Conjugation of the Reactive Oxygen Species (ROS)-Generating Catalytic Moiety with Membrane-Active Antimicrobial Peptoids: Promoting Multitarget Mechanism and Enhancing Selectivity” (J Med Chem, 2024)
# Calls of active or inactive are those of the source. The calls are words filed in the database; no cut-off is given here. Non-standard residues stand in square brackets, D forms with d. Residues, ends and D or L forms follow the SMILES beside them. Gly(N(CH2)2(3-indolyl)) = O=C(O)CNCCc1c[nH]c2ccccc12; Nspe = C[C@H](NCC(=O)O)c1ccccc1; Nlys = NCCCCNCC(=O)O
# Experiments:
# L929 = test: Cytotoxicity against mouse L929 cells assessed as reduction in cell viability at 3.1 to 25 uM incubated for 24 hrs by WST-8 assay; format: toxicity, cell-based; details: l929, 24 h, dose 3.1-25 µM
# Escherichia coli [1] = test: Antibacterial activity against Escherichia coli K1 infected in female ICR mouse model of septic shock assessed as reduction in AST level in serum at 5 mg/kg, ip pretreated for 1 hr followed by bacteria addition and further treated with 3 doses of compound every 4 hrs relative to control; format: functional; design: scale not given: the % may be the effect or the level left; details: time 9 hrs
# Escherichia coli [2] = test: Antibacterial activity against Escherichia coli K1 infected in female ICR mouse model of septic shock assessed as reduction in bacterial load in liver at 5 mg/kg, ip pretreated for 1 hr followed by bacteria addition and further treated with 3 doses of compound every 4 hrs; format: functional, organism-based; details: time 9.0 hrs
# Escherichia coli [3] = test: Antibacterial activity against Escherichia coli K1 infected in female ICR mouse model of septic shock assessed as reduction in IL-6 level in serum at 5 mg/kg, ip pretreated for 1 hr followed by bacteria addition and further treated with 3 doses of compound every 4 hrs by ELISA relative to control; format: functional; design: scale not given: the % may be the effect or the level left; details: time 9 hrs
# Streptococcus pneumoniae [4] = test: Antibacterial activity against catalase-negative Streptococcus pneumoniae KCMM42691 assessed as inhibition of bacterial growth incubated for 24 hrs by broth dilution method; format: functional
# Acinetobacter baumannii = test: Antibacterial activity against carbapenem-resistant Acinetobacter baumannii NMS1707 harboring extended-spectrum beta-lactamase assessed as inhibition of bacterial growth incubated for 24 hrs by broth dilution method; format: functional
# Streptococcus pneumoniae [5] = test: Antibacterial activity against catalase-negative Streptococcus pneumoniae KCMM42691 assessed as cell killing at 12.5 uM incubated for 4 to 16 hrs by CFU assay; format: functional, organism-based; details: time 4-16 hrs
# [6] = Hemolytic activity in male Sprague-Dawley rat erythrocytes assessed as concentration required for 50% hemolysis incubated for 1 hr by absorbance based method; format: toxicity, cell-based, Erythrocyte
# [7] = Selectivity index, ratio of HC10 for hemolytic activity in male Sprague-Dawley rat erythrocytes to MIC for antibacterial activity against Escherichia coli ATCC 25922; format: toxicity; details: read-out: Selectivity Index
# Escherichia coli [8] = test: Antibacterial activity against Escherichia coli ATCC 25922 assessed as inhibition of bacterial growth incubated for 24 hrs by broth dilution method; format: functional
# RAW264.7 [9] = test: Antiinflammatory activity in LPS-stimulated mouse RAW264.7 cells assessed as reduction in nitrite production at 10 uM incubated for 16 hrs by ELISA relative to control; format: functional; design: scale not given: the % may be the effect or the level left
# RAW264.7 [10] = test: Cytotoxicity against mouse RAW264.7 cells assessed as cell killing incubated for 24 hrs by MTS assay; format: toxicity, cell-based; details: raw264.7, 24 h
# [11] = Toxicity in female ICR mouse assessed as effect on blood urea nitrogen level at 5 mg/kg, ip administered four doses for 12 hrs and measured 24 hrs post last dose; format: organism-based; details: in vivo, 36 h
# Escherichia coli [12] = test: Antibacterial activity against Escherichia coli K1 infected in female ICR mouse model of septic shock assessed as increase in animal survival at 5 mg/kg, ip pretreated for 1 hr followed by bacteria addition and further treated with 3 doses of compound every 4 hrs and measured every hour for 36 hrs and every 6 hrs for 96 hrs; format: functional
# Escherichia coli [13] = test: Antibacterial activity against Escherichia coli K1 infected in female ICR mouse model of septic shock assessed as reduction in endotoxin level at 5 mg/kg, ip pretreated for 1 hr followed by bacteria addition and further treated with 3 doses of compound every 4 hrs relative to control; format: functional; design: scale not given: the % may be the effect or the level left; details: time 9 hrs
# DNA = test: Binding affinity to pUC19 plasmid DNA (unknown origin) assessed as smearing and retardation of DNA bands at 25 uM incubated for 2 hrs by agarose gel imaging method; format: nucleic-acid assay
# Escherichia coli [14] = test: Antibacterial activity against Escherichia coli K1 infected in female ICR mouse model of septic shock assessed as reduction in pulmonary congestion in lung at 5 mg/kg, ip pretreated for 1 hr followed by bacteria addition and further treated with 3 doses of compound every 4 hrs by H and E staining based light microscopic analysis; format: functional, organism-based; details: time 9.0 hrs
# Escherichia coli [15] = test: Antibacterial activity against Escherichia coli K1 infected in female ICR mouse model of septic shock assessed as creatinine level in serum at 5 mg/kg, ip pretreated for 1 hr followed by bacteria addition and further treated with 3 doses of compound every 4 hrs (reference value: 57.3%); format: functional; details: time 9 hrs
# [16] = Toxicity in female ICR mouse assessed as effect on creatinine level in serum at 5 mg/kg, ip administered four doses for 12 hrs and measured 24 hrs post last dose; format: organism-based; details: in vivo, 36 h
# [17] = Hemolytic activity in male Sprague-Dawley rat erythrocytes at 100 uM incubated for 1 hr by absorbance based method relative to control; format: toxicity, cell-based, Erythrocyte; details: read-out: Activity
# RAW264.7 [18] = test: Antiinflammatory activity in LPS-stimulated mouse RAW264.7 cells assessed as reduction in TNFalpha production at 10 uM incubated for 16 hrs by ELISA relative to control; format: functional; design: scale not given: the % may be the effect or the level left
# RAW264.7 [19] = test: Antiinflammatory activity in LPS-stimulated mouse RAW264.7 cells assessed as reduction in IL-1beta production at 10 uM incubated for 16 hrs by ELISA relative to control; format: functional; design: scale not given: the % may be the effect or the level left
# Escherichia coli [20] = test: Antibacterial activity against Escherichia coli K1 infected in female ICR mouse model of septic shock assessed as reduction in ALT level in serum at 5 mg/kg, ip pretreated for 1 hr followed by bacteria addition and further treated with 3 doses of compound every 4 hrs relative to control; format: functional; design: scale not given: the % may be the effect or the level left; details: time 9 hrs
# Escherichia coli [21] = test: Antibacterial activity against colistin-resistant Escherichia coli NMS12 harboring extended-spectrum beta-lactamase assessed as inhibition of bacterial growth incubated for 24 hrs by broth dilution method; format: functional
# [22] = Toxicity in female ICR mouse assessed as dilatation of interstitial blood capillaries in kidney at 5 mg/kg, ip administered four doses for 12 hrs and measured 24 hrs post last dose by H and E staining based light microscopic analysis; format: organism-based; details: in vivo, 36 h
# Staphylococcus aureus = test: Antibacterial activity against Staphylococcus aureus ATCC 25923 assessed as inhibition of bacterial growth incubated for 24 hrs by broth dilution method; format: functional
# [23] = Hemolytic activity in male Sprague-Dawley rat erythrocytes at 25 uM incubated for 1 hr by absorbance based method relative to control; format: toxicity, cell-based, Erythrocyte; details: read-out: Activity
# RAW264.7 [24] = test: Antiinflammatory activity in LPS-stimulated mouse RAW264.7 cells assessed as reduction in IL-6 production at 10 uM incubated for 16 hrs by ELISA relative to control; format: functional; design: scale not given: the % may be the effect or the level left
# Escherichia coli [25] = test: Antibacterial activity against Escherichia coli K1 infected in female ICR mouse model of septic shock assessed as reduction in alveolar hemorrhage in lung at 5 mg/kg, ip pretreated for 1 hr followed by bacteria addition and further treated with 3 doses of compound every 4 hrs by H and E staining based light microscopic analysis; format: functional, organism-based; details: time 9.0 hrs
# Escherichia coli [26] = test: Antibacterial activity against Escherichia coli K1 infected in female ICR mouse model of septic shock assessed as reduction in bacterial load in lung at 5 mg/kg, ip pretreated for 1 hr followed by bacteria addition and further treated with 3 doses of compound every 4 hrs; format: functional, organism-based; details: time 9.0 hrs
# [27] = Hemolytic activity in male Sprague-Dawley rat erythrocytes at 50 uM incubated for 1 hr by absorbance based method relative to control; format: toxicity, cell-based, Erythrocyte; details: read-out: Activity
# [28] = Toxicity in female ICR mouse assessed as lymphocyte infiltration in kidney at 5 mg/kg, ip administered four doses for 12 hrs and measured 24 hrs post last dose by H and E staining based light microscopic analysis; format: organism-based; details: in vivo, 36 h
smiles,measurement,setting,value
C[C@@H](c1ccccc1)N(CC(=O)N(CCCCN)CC(=O)N(CCc1c[nH]c2ccccc12)CC(=O)N(CCc1c[nH]c2ccccc12)CC(N)=O)C(=O)CN(CCCCN)C(=O)CN(CCCCN)C(=O)CN(C(=O)CN(C(=O)CN(CCCCN)C(=O)CN(C(=O)CN(C(=O)CN(CCCCN)C(=O)[C@H](Cc1c[nH]cn1)NC(=O)CNC(=O)CN)[C@@H](C)c1ccccc1)[C@@H](C)c1ccccc1)[C@@H](C)c1ccccc1)[C@@H](C)c1ccccc1 (H-GGH[Nlys][Nspe][Nspe][Nlys][Nspe][Nspe][Nlys][Nlys][Nspe][Nlys][Gly(N(CH2)2(3-indolyl))][Gly(N(CH2)2(3-indolyl))]-NH2),Activity,L929,Non-Toxic
same,Activity,Escherichia coli [1],32.7%
same,Activity,Escherichia coli [2],Active
same,Activity,Escherichia coli [3],42.8%
same,MBC,Streptococcus pneumoniae [4],12.5 µM
same,MIC,Streptococcus pneumoniae [4],6.3 µM
same,MIC,Acinetobacter baumannii,3.1 µM
same,Activity,Streptococcus pneumoniae [5],Active
same,HC50 at 1 h,[6],> 100 µM
same,selectivity ratio,[7],> 15.8
same,MIC,Escherichia coli [8],6.3 µM
same,Activity,RAW264.7 [9],80.9%
same,LC50,RAW264.7 [10],39.6 µM
same,Activity,[11],Non-Toxic
same,survival at 5 mg/kg,Escherichia coli [12],60%
same,Activity,Escherichia coli [13],44.3%
same,Activity,DNA,Active
same,Activity,Escherichia coli [14],Active
same,Activity,Escherichia coli [15],32.8%
same,Activity,[16],Non-Toxic
same,"hemolysis at 1 h, 100 µM",[17],5.57%
same,Activity,RAW264.7 [18],32.5%
same,Activity,RAW264.7 [19],36%
same,Activity,Escherichia coli [20],51.1%
same,MIC,Escherichia coli [21],12.5 µM
same,Activity,[22],Non-Toxic
same,MIC,Staphylococcus aureus,12.5 µM
same,"hemolysis at 1 h, 25 µM",[23],3.13%
same,Activity,RAW264.7 [24],99.3%
same,Activity,Escherichia coli [25],Active
same,Activity,Escherichia coli [26],Active
same,"hemolysis at 1 h, 50 µM",[27],4.83%
same,Activity,[28],Non-Toxic
